Source: ChEMBL document CHEMBL1240486, “Novel N-methylated 8-oxoisoguanines from Pacific sponges with diverse neuroactivities” (J Med Chem, 2010)
Blank lines part the entries; values can stand above or below the molecule they belong to. Activity calls are given as the source filed them. The rule behind the calls is not given here.

How the values were obtained:
Mus musculus [1] = experiment: Neurotoxicity in ddY mouse assessed as induction of convulsions at 0.05 to 0.1 umol, icv measured for 60 mins; assay type: toxicity, organism-based; details: in vivo, icv_or_intrathecal, 1 h
Mus musculus [2] = experiment: Neurotoxicity in ddY mouse assessed as changes in behavioral activity at 14 nmol/mouse, icv measured for 60 mins; assay type: toxicity, organism-based; details: in vivo, icv_or_intrathecal, 1 h
Mus musculus [3] = experiment: Neurotoxicity in icv dosed ddY mouse assessed as 50% maximal convulsant dose measured for 60 mins; assay type: toxicity, organism-based; details: in vivo, icv_or_intrathecal, 1 h
Mus musculus [4] = experiment: Neurotoxicity in ddY mouse assessed as changes in behavioral activity at 30 to 110 nmol/mouse, icv measured for 60 mins; assay type: toxicity, organism-based; details: in vivo, icv_or_intrathecal, 1 h
Mus musculus [5] = experiment: Neurotoxicity in ddY mouse assessed as changes in behavioral activity at >75 nmol/mouse, icv measured for 60 mins; assay type: toxicity, organism-based; details: in vivo, icv_or_intrathecal, 1 h
Mus musculus [6] = experiment: Neurotoxicity in ddY mouse assessed as changes in behavioral activity at 25 to 50 nmol/mouse, icv measured for 60 mins; assay type: toxicity, organism-based; details: in vivo, icv_or_intrathecal, 1 h
Mus musculus [7] = experiment: Neurotoxicity in ddY mouse assessed as induction of occasional tonic extension of forelimbs and weakness of lower bodies at 0.1 umol, icv measured for 60 mins; details: in vivo, icv_or_intrathecal, 1 h
Mus musculus [8] = experiment: Toxicity in ddY mouse assessed as death at 0.1 umol, icv; assay type: organism-based; details: in vivo, icv_or_intrathecal
Mus musculus [9] = experiment: Neurotoxicity in ddY mouse assessed as changes in behavioral activity at 100 nmol/mouse, icv measured for 60 mins; assay type: toxicity, organism-based; details: in vivo, icv_or_intrathecal, 1 h
Mus musculus [10] = species on record: Mus musculus; experiment: Inhibition of GABAA receptor-mediated inhibitory synaptic currents in juvenile mouse CA1 neurons at 30 uM by whole-cell voltage clamp assay in presence of SCH-50911
[11] = molecular target: 5-hydroxytryptamine receptor 1E (Homo sapiens, UniProt P28566); experiment: Binding affinity to 5HT1E receptor
Rattus norvegicus [12] = species on record: Rattus norvegicus; experiment: Inhibition of GABAA receptor-mediated inhibitory synaptic currents in rat hippocampal neurons assessed as sEPSC bursts at 10 uM measured after compound washout by whole-cell voltage clamp assay; assay type: tissue-based; details: Hippocampus
Rattus norvegicus [13] = species on record: Rattus norvegicus; experiment: Displacement of [3H]muscimol from GABA binding site of GABAA receptor in rat brain membrane at <10 uM; assay type: cell membranes
Mus musculus [14] = species on record: Mus musculus; experiment: Inhibition of GABAA receptor-mediated inhibitory synaptic currents in juvenile mouse CA1 neurons at 30 uM by whole-cell voltage clamp assay
Rattus norvegicus [15] = species on record: Rattus norvegicus; experiment: Inhibition of GABAA receptor-mediated postsynaptic current in rat hippocampal neurons at 10 uM after 5 mins by whole-cell voltage clamp assay; assay type: tissue-based; details: Hippocampus
[16] = molecular target: T1, Alpha-1D adrenergic receptor (Homo sapiens, UniProt P25100); experiment: Binding affinity to adrenergic Alpha-1D receptor
T1 sequence (P25100 whole entry): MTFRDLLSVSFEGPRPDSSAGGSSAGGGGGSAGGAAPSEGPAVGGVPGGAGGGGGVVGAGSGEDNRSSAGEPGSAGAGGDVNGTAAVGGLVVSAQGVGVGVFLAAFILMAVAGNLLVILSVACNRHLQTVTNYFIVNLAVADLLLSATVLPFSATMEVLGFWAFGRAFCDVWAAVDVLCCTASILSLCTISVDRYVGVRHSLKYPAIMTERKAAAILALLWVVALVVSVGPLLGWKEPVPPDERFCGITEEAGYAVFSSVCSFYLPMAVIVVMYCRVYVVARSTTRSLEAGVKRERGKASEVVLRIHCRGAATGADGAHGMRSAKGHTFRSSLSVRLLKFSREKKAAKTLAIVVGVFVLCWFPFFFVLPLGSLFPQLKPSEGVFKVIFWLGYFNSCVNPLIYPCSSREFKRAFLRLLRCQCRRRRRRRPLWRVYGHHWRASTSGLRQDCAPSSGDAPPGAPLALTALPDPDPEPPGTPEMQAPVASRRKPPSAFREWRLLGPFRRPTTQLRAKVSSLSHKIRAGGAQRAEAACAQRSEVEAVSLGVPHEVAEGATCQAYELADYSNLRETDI

[17] = molecular target: Glutamate NMDA receptor (Rattus norvegicus) (UniProt P35439+Q00959+Q00960+Q00961+Q62645+Q8VHN2+Q9R1M7); experiment: Displacement of [3H]CGP39653 from NMDA receptor in Sprague-Dawley rat synaptic membranes at 10 uM after 1 hr; assay type: cell membranes; details: Membrane
Rattus norvegicus [18] = species on record: Rattus norvegicus; experiment: Inhibition of GABAA receptor-mediated miniature excitatory postsynaptic current in rat hippocampal neurons assessed as EPSC bursts at 10 uM after 5 mins by whole-cell voltage clamp assay (Rvb 0.69 +/- 0.21 Hz); assay type: tissue-based; details: Hippocampus
Rattus norvegicus [19] = species on record: Rattus norvegicus; experiment: Effect on GABAA receptor-mediated spontaneous excitatory postsynaptic current in rat hippocampal neurons assessed as frequency of sEPSC bursts at 10 uM after 5 mins by whole-cell voltage clamp assay (reference value: 0.84 +/- 0.12 Hz); assay type: tissue-based; details: Hippocampus
[20] = Inhibition of GABAA receptor-mediated miniature inhibitory postsynaptic current in rat hippocampal neurons at 10 uM after 5 mins by whole-cell voltage clamp assay relative to baseline in presence of nonselective adenosine receptor antagonist CGS-15943; assay type: functional; details: Hippocampus
[21] = molecular target: Glutamate receptor 4 (Homo sapiens) (UniProt P48058); experiment: Antagonist activity at recombinant GluA4 receptor expressed in HEK 293-T/17 cells assessed as glutamate-induced current at 100 uM by whole-cell recording relative to control; assay type: functional, cell-based; design: scale not given: the % may be the effect or the level left; details: HEK293
Rattus norvegicus [22] = species on record: Rattus norvegicus; experiment: Displacement of [3H]AMPA from AMPA receptor in Sprague-Dawley rat synaptic membranes at 10 uM after 1 hr; assay type: cell membranes; details: Membrane
Rattus norvegicus [23] = species on record: Rattus norvegicus; experiment: Inhibition of GABAA receptor-mediated miniature inhibitory postsynaptic current in rat hippocampal neurons at 10 uM after 5 mins by whole-cell voltage clamp assay relative to baseline; assay type: tissue-based; details: Hippocampus
Mus musculus [24] = species on record: Mus musculus; experiment: Inhibition of GABAA receptor-mediated inhibitory synaptic currents in juvenile mouse CA1 neurons at 30 uM by whole-cell voltage clamp assay in presence of prazosin
Mu-type opioid receptor = Mu-type opioid receptor (Homo sapiens, UniProt P35372); experiment: Binding affinity to mu opioid receptor
Rattus norvegicus [25] = species on record: Rattus norvegicus; experiment: Displacement of [3H]flunitrazepam from benzodiazepine binding site of GABAA receptor in rat brain membrane at <10 uM; assay type: cell membranes
[26] = molecular target: Neuronal acetylcholine receptor; alpha3/beta2 (Homo sapiens, UniProt P17787+P32297); experiment: Binding affinity to nicotinic alpha3beta2 receptor receptor; assay type: protein-complex assay
Mus musculus [27] = experiment: Neurotoxicity in ddY mouse assessed as changes in behavioral activity at 1 nmol/mouse, icv measured for 60 mins; assay type: toxicity, organism-based; details: in vivo, icv_or_intrathecal, 1 h
[28] = molecular target: Kappa-type opioid receptor (Homo sapiens, UniProt P41145); experiment: Binding affinity to kappa opioid receptor
[29] = molecular target: T2, Alpha-1A adrenergic receptor (Homo sapiens, UniProt P35348); experiment: Binding affinity to adrenergic alpha1A receptor
T2 sequence (P35348 whole entry): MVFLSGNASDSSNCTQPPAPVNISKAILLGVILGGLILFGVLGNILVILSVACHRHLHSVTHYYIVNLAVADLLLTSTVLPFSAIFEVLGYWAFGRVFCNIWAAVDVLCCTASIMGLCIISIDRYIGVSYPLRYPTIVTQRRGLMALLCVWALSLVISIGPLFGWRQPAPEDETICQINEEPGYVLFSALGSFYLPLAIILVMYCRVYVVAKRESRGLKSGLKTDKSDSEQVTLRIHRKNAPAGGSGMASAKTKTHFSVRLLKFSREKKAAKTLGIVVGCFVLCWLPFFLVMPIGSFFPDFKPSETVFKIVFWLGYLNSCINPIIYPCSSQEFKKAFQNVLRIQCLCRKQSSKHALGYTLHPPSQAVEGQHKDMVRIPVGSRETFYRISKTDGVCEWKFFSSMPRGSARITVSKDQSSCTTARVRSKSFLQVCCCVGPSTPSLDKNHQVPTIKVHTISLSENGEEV

[30] = molecular target: T3, Alpha-1B adrenergic receptor (Homo sapiens, UniProt P35368); experiment: Binding affinity to adrenergic Alpha-1B receptor
T3 sequence (P35368 whole entry): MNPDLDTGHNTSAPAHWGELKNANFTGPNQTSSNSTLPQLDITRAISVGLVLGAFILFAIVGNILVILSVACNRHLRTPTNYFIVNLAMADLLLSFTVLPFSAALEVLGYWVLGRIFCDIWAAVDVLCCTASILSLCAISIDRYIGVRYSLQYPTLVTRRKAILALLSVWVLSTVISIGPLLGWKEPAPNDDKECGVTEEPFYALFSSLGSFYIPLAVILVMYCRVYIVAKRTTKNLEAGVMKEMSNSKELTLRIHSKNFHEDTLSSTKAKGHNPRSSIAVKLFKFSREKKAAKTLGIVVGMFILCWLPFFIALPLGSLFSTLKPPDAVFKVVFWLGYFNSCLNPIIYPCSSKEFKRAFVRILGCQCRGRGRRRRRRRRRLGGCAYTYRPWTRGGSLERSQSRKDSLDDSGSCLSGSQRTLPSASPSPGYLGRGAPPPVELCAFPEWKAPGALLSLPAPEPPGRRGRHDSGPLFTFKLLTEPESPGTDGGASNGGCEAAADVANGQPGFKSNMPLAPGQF

Rattus norvegicus [31] = species on record: Rattus norvegicus; experiment: Inhibition of GABAA receptor-mediated inhibitory synaptic currents in rat hippocampal neurons assessed as sEPSC bursts at 10 uM after 5 mins by whole-cell voltage clamp assay (reference value: 5.6 +/- 1.6 Hz); assay type: tissue-based; details: Hippocampus
Rattus norvegicus [32] = species on record: Rattus norvegicus; experiment: Displacement of [3H]kainate from kainate receptor in Sprague-Dawley rat synaptic membranes at 10 uM after 1 hr; assay type: cell membranes; details: Membrane
Rattus norvegicus [33] = species on record: Rattus norvegicus; experiment: Inhibition of GABAA receptor-mediated postsynaptic current in rat hippocampal neurons at 30 uM after 5 mins by whole-cell voltage clamp assay; assay type: tissue-based; details: Hippocampus
Mus musculus [34] = species on record: Mus musculus; experiment: Inhibition of excitatory postsynaptic current in juvenile mouse CA1 neurons at 30 uM by whole-cell voltage clamp assay
[35] = molecular target: GABA A receptor alpha-4/beta-3/gamma-2 (Homo sapiens) (UniProt P18507+P28472+P48169); experiment: Antagonist activity at recombinant alpha-4-beta-3-gamma-2S receptor expressed in HEK 293-T/17 cells assessed as GABA-induced current at 30 uM by whole-cell recording relative to control; assay type: functional, cell-based; design: scale not given: the % may be the effect or the level left; details: HEK293
Mus musculus [36] = experiment: Neurotoxicity in ddY mouse assessed as changes in behavioral activity at >4 nmol/mouse, icv measured for 60 mins; assay type: toxicity, organism-based; details: in vivo, icv_or_intrathecal, 1 h

Sequence of Kappa-type opioid receptor (P41145 whole entry): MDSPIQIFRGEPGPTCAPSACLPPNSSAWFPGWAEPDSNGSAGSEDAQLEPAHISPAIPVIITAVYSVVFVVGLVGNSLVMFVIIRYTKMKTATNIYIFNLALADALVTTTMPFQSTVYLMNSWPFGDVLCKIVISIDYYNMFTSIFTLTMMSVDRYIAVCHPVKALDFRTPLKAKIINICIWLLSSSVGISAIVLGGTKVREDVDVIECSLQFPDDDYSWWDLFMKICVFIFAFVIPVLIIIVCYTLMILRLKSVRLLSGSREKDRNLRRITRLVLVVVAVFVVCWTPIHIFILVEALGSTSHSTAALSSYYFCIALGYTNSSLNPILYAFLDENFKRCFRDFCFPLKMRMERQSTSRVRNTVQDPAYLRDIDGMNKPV
Sequence of Glutamate receptor 4 (Homo sapiens) (P48058 whole entry): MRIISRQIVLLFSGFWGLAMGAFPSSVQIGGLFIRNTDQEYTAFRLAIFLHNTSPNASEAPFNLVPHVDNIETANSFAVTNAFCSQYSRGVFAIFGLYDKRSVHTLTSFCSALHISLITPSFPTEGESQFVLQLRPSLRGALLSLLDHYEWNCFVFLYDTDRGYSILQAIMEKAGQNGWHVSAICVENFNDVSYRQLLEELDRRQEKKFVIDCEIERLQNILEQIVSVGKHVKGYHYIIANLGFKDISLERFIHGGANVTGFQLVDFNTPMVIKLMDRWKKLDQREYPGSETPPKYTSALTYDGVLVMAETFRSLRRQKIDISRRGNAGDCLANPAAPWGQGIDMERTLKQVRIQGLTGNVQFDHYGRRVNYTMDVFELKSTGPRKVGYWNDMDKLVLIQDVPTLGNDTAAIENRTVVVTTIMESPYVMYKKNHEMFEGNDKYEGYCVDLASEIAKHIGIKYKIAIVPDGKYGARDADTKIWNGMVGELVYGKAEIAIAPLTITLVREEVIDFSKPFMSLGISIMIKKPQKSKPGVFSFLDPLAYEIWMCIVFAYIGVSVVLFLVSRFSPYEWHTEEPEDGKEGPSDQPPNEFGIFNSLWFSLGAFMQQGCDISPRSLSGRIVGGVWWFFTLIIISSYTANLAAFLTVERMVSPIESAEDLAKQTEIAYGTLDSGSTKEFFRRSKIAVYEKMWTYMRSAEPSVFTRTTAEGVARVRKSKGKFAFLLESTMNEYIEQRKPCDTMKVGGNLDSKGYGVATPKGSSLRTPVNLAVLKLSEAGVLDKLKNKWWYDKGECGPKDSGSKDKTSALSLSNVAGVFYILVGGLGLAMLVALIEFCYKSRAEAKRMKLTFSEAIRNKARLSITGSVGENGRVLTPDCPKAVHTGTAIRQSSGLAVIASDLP
Sequence of Mu-type opioid receptor (P35372 whole entry): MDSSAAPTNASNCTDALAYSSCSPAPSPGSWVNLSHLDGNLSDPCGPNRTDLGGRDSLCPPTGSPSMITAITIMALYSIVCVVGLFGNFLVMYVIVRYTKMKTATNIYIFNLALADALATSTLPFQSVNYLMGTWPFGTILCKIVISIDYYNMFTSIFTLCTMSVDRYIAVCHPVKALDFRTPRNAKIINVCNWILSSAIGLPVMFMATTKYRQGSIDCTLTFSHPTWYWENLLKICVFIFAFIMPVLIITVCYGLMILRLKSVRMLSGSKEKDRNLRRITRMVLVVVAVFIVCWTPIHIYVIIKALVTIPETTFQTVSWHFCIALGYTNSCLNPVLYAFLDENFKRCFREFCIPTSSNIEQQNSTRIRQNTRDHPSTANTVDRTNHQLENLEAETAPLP
Sequence of Neuronal acetylcholine receptor; alpha3/beta2 (P17787 whole entry): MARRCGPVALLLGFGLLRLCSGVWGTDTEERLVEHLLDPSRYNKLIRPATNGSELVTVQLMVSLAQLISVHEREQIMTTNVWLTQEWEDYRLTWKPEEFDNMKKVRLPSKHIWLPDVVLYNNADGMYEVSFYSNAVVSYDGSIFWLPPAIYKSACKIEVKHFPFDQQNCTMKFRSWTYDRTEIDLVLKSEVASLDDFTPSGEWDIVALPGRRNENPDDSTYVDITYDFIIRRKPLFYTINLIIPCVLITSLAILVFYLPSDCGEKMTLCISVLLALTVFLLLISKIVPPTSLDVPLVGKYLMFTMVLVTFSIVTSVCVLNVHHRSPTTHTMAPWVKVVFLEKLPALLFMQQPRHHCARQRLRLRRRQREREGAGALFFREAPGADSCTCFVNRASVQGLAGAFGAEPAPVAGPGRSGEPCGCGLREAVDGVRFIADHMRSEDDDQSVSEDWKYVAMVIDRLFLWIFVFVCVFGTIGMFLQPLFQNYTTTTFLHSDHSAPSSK
Sequence of Neuronal acetylcholine receptor; alpha3/beta2 (P32297 whole entry): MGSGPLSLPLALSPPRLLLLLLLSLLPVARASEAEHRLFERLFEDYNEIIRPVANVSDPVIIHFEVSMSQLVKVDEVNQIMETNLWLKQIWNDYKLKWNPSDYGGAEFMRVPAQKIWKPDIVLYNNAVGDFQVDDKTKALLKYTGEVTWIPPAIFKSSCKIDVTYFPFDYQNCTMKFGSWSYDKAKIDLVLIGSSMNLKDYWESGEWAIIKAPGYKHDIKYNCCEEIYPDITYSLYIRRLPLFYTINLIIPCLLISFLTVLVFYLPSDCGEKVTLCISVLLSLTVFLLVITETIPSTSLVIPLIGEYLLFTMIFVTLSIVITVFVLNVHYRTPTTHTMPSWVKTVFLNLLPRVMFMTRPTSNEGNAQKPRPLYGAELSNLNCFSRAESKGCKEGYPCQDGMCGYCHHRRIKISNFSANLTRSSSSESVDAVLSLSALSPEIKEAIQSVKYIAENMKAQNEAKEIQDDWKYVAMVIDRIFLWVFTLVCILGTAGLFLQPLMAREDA
Sequence of 5-hydroxytryptamine receptor 1E (P28566 whole entry): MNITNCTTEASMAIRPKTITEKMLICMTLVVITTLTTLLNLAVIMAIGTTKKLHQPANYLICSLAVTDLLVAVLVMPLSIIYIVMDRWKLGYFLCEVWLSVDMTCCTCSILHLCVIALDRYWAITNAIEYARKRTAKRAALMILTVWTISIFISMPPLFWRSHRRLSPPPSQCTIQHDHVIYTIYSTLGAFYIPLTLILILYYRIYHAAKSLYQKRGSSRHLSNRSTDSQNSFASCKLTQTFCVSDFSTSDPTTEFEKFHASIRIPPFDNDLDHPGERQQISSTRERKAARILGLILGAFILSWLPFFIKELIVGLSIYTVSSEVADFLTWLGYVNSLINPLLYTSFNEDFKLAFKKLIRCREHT

Structure (SMILES): Cl.Cn1c(=O)[nH]c2c(=N)[nH]c(=O)[nH]c21
- Activity (Mus musculus [1]): Toxic
- Activity (Mus musculus [2]): Toxic
- Activity (Mus musculus [3]): 18 nmol
- Activity (Mus musculus [4]): Toxic

Structure (SMILES): Cl.Cn1c(=N)c2[nH]c(=O)[nH]c2n(C)c1=O
- Activity (Mus musculus [5]): Toxic
- Activity (Mus musculus [6]): Toxic
- Activity (Mus musculus [3]): 54 nmol
- Activity (Mus musculus [7]): Toxic
- Activity (Mus musculus [8]): Toxic

Structure (SMILES): Cl.Cn1c(=O)[nH]c(=N)c2[nH]c(=O)n(C)c21
- Activity (Mus musculus [9]): Toxic

- inhibition (Mus musculus [10]): Active
- Ki [11]: 2900 nM
- inhibition (Rattus norvegicus [13]): inactive
- inhibition (Mus musculus [14]): 71%
- Ki [16]: 497 nM
- inhibition [17]: inactive
- Activity [21]: 100%
- inhibition (Rattus norvegicus [22]): inactive
- inhibition (Mus musculus [24]): Active
- Ki (Mu-type opioid receptor): 8900 nM
- inhibition (Rattus norvegicus [25]): inactive
- Ki [26]: 4200 nM
- Ki [28]: 1800 nM
- Ki [29]: 885 nM
- Ki [30]: 758 nM
- inhibition (Rattus norvegicus [32]): inactive
- inhibition (Mus musculus [34]): 22%
- Activity [35]: 93%
Structure (SMILES): Cl.Cn1c(=O)[nH]c2c([nH]c(=O)n2C)c1=N
- Activity (Rattus norvegicus [12]): 6 Hz
- inhibition (Rattus norvegicus [15]): Active
- Activity (Rattus norvegicus [18]): 0.95 Hz
- Activity (Rattus norvegicus [19]): 0.9 Hz
- inhibition at 10 µM [20]: 29.6%
- inhibition (Rattus norvegicus [23]): 32%
- Activity (Mus musculus [3]): 2.4 nmol
- Activity (Mus musculus [27]): Toxic
- Activity (Rattus norvegicus [31]): 3.6 Hz
- inhibition (Rattus norvegicus [33]): Active
- Activity (Mus musculus [36]): Toxic
